# Literature values, collected in US11185067B2, “Attractants for rats” (priority 2015, dated 2021).
# Tested on: rats
# Conditions: odor-painted glass rods inserted into cage; Zhang et al. 2008, 2011
row,Compound,effects on rat behavior
1,CCCCCCCC(C)=O [2-nonanone],inducing sniffing or licking
2,CCCC(=O)CCC [4-heptanone],inducing sniffing or licking
3,CCCCCC(C)=O [2-heptanone],inducing sniffing or licking
